Laboratory results reported in ChEMBL document CHEMBL4476867, “Hydroxy formamide derivatives and their use” (2016).
pIC50: −log10 of the molar value.

Legend:
[1] = Reduction in mature collagen deposition levels in human cardiac fibroblasts incubated for 24 to 48 hrs by immunostaining based assay; assay type: functional
How it was run: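 Human cardiac fibroblasts were plated in 96-well plates and treated for 24 to 48 hr at 37° C in ficoll crowding EMEM containing 100 μM ascorbic acid, with DMSO kept under 0.3%. After fixation in −20° C methanol for 10 min, cells were stained with anti-mature collagen I antibody, an Alexa647 secondary antibody and Hoechst and imaged on an Operetta system. The IC50 was fitted in GraphPad Prism from collagen intensity normalised to the nuclei count per field.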

[2] = molecular target: T1, Bone morphogenetic protein 1 (Homo sapiens, UniProt P13497); assay: Inhibition of C-terminal FLAG-6x-His epitope tagged and N-terminal human RAGE signal sequence tagged human BMP1 (23 to 721 amino acids) expressed in CHO-E1 cells pre-incubated for 10 mins before promyostatin peptide substrate addition and measured after 60 mins using 0.5 nM BMP1 by FRET based assay; assay type: cell-based
T1 sequence (P13497 whole entry): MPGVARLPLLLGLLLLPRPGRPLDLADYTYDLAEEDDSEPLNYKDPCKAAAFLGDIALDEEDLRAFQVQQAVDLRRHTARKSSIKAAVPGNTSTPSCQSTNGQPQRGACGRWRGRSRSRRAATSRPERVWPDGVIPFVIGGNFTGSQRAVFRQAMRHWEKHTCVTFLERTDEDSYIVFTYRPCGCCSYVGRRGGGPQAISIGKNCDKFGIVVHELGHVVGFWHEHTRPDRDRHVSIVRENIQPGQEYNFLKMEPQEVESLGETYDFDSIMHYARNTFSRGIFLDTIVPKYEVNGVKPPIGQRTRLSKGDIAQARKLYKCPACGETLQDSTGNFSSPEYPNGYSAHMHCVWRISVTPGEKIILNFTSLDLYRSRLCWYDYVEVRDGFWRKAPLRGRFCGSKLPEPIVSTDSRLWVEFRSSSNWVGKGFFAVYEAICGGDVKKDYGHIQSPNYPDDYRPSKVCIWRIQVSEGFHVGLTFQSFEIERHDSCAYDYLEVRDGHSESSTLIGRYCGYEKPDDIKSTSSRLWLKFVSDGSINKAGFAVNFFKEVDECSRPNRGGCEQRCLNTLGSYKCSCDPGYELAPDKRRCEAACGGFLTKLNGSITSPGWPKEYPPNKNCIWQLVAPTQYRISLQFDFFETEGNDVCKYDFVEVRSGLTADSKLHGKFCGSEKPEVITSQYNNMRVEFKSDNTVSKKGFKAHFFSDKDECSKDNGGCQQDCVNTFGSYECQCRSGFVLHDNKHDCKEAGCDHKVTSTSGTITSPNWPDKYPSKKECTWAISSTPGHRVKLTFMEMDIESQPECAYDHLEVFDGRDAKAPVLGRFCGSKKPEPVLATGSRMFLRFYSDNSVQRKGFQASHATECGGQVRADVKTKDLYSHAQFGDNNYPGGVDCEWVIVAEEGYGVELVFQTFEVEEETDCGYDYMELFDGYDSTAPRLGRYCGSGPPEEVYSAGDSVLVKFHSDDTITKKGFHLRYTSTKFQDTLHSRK

Tolloid-like protein 1 = Tolloid-like protein 1 (Homo sapiens, UniProt O43897, I156V/N221S/V284A); assay: Inhibition of recombinant human TLL1 I156V/N221S/V284A mutant expressed in CHOE1A cells pre-incubated for 10 mins before promyostatin peptide substrate addition and measured after 60 mins by FRET based assay; assay type: cell-based
Sequence of Tolloid-like protein 1 (O43897 148-1013 I156V/N221S/V284A limits assumed): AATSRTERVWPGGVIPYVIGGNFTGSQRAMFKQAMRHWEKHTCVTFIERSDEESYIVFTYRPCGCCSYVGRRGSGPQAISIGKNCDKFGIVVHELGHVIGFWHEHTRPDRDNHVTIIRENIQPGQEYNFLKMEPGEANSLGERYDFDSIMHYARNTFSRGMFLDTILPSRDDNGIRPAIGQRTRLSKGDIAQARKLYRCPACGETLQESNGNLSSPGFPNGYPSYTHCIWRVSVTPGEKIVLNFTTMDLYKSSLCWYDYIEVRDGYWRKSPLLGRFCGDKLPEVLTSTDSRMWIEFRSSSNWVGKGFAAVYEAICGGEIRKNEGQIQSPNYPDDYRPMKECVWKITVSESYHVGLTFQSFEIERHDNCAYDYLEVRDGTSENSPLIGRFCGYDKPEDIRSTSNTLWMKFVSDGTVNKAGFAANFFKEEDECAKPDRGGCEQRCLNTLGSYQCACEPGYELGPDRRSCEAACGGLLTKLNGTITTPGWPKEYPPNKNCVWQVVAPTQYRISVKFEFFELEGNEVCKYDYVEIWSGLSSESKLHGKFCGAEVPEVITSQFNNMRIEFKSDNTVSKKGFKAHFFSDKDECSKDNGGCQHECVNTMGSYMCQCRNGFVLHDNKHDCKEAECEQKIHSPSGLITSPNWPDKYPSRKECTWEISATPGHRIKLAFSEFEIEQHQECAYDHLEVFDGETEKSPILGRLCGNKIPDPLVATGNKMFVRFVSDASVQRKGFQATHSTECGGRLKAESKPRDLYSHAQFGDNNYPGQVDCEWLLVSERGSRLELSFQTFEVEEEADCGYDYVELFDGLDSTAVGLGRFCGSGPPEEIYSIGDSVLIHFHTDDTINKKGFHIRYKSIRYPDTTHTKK

[3] = Reduction in PICP levels in human cardiac fibroblasts incubated for 24 to 48 hrs by ELISA; assay type: functional
How it was run: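 Human cardiac fibroblasts at passage 6 or below were plated in 96-well plates at 10,000 to 15,000 cells per well. On the following day, cells were treated for 24 to 48 hr at 37° C in ficoll crowding EMEM containing 100 μM ascorbic acid, with DMSO kept under 0.3%. A Quidel ELISA measured procollagen I C-terminal propeptide released into the medium, and IC50 values were derived in GraphPad Prism by fitting levels, expressed relative to untreated controls, to a log(inhibitor)-response equation.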

Tolloid-like protein 2 = molecular target: T2, Tolloid-like protein 2 (Homo sapiens, UniProt Q9Y6L7); assay: Inhibition of C-terminal Avi-6x-His epitope tagged and N-terminal human RAGE signal sequence tagged recombinant human TLL2 (26 to 1015 amino acids) expressed in CHOE1A cells incubated for 60 mins with promyostatin peptide substrate by FRET based assay; assay type: cell-based
T2 sequence (Q9Y6L7 whole entry): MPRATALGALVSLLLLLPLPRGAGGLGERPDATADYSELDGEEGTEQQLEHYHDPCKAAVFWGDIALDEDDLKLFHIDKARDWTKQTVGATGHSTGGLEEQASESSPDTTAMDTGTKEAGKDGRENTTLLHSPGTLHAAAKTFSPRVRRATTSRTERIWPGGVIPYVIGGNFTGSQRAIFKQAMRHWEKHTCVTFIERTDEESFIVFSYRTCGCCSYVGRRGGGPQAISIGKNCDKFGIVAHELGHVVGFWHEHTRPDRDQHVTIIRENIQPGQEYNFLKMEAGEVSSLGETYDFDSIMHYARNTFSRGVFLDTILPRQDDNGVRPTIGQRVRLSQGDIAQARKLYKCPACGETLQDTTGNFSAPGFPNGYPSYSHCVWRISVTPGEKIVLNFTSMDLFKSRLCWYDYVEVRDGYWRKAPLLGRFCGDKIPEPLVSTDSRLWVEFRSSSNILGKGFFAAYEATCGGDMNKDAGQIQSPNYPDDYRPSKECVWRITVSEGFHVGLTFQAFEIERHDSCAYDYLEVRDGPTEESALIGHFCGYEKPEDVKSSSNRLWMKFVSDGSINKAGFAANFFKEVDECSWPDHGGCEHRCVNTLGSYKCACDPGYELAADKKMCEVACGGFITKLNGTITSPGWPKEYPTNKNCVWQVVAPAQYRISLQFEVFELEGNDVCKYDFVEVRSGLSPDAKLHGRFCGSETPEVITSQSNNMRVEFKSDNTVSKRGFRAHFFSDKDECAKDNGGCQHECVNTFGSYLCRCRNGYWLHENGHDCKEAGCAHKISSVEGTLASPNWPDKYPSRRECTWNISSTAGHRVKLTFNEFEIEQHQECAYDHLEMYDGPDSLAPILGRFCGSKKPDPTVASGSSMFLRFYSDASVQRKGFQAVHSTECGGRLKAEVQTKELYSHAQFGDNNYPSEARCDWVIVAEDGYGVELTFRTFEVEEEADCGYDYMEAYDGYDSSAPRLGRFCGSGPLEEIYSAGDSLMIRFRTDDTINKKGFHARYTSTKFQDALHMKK

[4] = molecular target: T1, Bone morphogenetic protein 1; assay: Inhibition of C-terminal FLAG-6x-His epitope tagged and N-terminal human RAGE signal sequence tagged human BMP1 (23 to 721 amino acids) expressed in CHO-E1 cells pre-incubated for 10 mins before promyostatin peptide substrate addition and measured after 30 mins using 50 nM BMP1 by FRET based assay; assay type: cell-based

| Compound | pIC50 [1] | pIC50 [2] | pIC50 (Tolloid-like protein 1) | pIC50 [3] | pIC50 (Tolloid-like protein 2) | pIC50 [4] |
| --- | --- | --- | --- | --- | --- | --- |
| CCCCC[C@@H](C(=O)NCNC(=O)c1ccc(-c2ccc(P(=O)(O)O)c(OCC)c2)o1)[C@@H](CC)N(O)C=O | > 6.00 | > 6.90 | > 6.40 | > 5.40 | > 6.10 | > 6.70 |
| CCCCC[C@@H](C(=O)NCNC(=O)c1ccc(-c2cc(OCC)cc(P(=O)(O)O)c2)o1)[C@@H](CC)N(O)C=O | > 6.00 | > 6.90 | > 6.40 | > 5.40 | > 6.10 | > 6.70 |
| CCOc1cc(C(=O)N(CC(=O)O)CC(=O)O)cc(-c2ccc(C(=O)NCNC(=O)[C@H](CCc3ccc(F)cc3F)[C@@H](CC)N(O)C=O)o2)c1 | > 6.00 | > 6.90 | > 6.40 | > 5.40 | > 6.10 | > 6.70 |
| CCCCC[C@@H](C(=O)NCNC(=O)c1ccc(-c2ccc(C(=O)N[C@@H](CC(=O)O)C(=O)O)c(OCC(=O)O)c2)o1)[C@@H](CC)N(O)C=O | > 6.00 | > 6.90 | > 6.40 | > 5.40 | > 6.10 | > 6.70 |
| CCCCC[C@@H](C(=O)NCNC(=O)c1ccc(-c2cc(CP(=O)(O)O)cc(OCC)c2)o1)[C@@H](CC)N(O)C=O | > 6.00 | > 6.90 | > 6.40 | > 5.40 | > 6.10 | > 6.70 |
| CCCCC[C@@H](C(=O)NCNC(=O)c1ccc(-c2cc(O)cc(C(=O)O)c2)o1)[C@@H](CC)N(O)C=O | > 6.00 | > 6.90 | > 6.40 | > 5.40 | > 6.10 | > 6.70 |
| CCCCC[C@@H](C(=O)NCNC(=O)c1ccc(-c2cc(O)c(C(=O)O)c(OCC)c2)o1)[C@@H](CC)N(O)C=O | > 6.00 | > 6.90 | > 6.40 | > 5.40 | > 6.10 | > 6.70 |
| CCCCC[C@@H](C(=O)NCNC(=O)c1ccc(-c2cc(OCC)c(F)c(C(=O)O)c2)o1)[C@@H](CC)N(O)C=O | > 6.00 | > 6.90 | > 6.40 | > 5.40 | > 6.10 | > 6.70 |
| CCCCC[C@@H](C(=O)NCNC(=O)c1ccc(-c2ccc(C(=O)N[C@H](CC(=O)O)C(=O)O)c(OCC)c2)o1)[C@@H](CC)N(O)C=O | > 6.00 | > 6.90 | > 6.40 | > 5.40 | > 6.10 | > 6.70 |
| CCCCC[C@@H](C(=O)NCNC(=O)c1ccc(-c2cc(OCC)cc(C(=O)N[C@@H](CCC(=O)O)C(=O)O)c2)o1)[C@@H](CC)N(O)C=O | > 6.00 | > 6.90 | > 6.40 | > 5.40 | > 6.10 | > 6.70 |
| CCCCC[C@@H](C(=O)NCNC(=O)c1ccc(-c2cc(OCC(=O)O)cc(C(=O)O)c2)o1)[C@@H](CC)N(O)C=O | > 6.00 | > 6.90 | > 6.40 | > 5.40 | > 6.10 | > 6.70 |
| CCOc1cc(-c2ccc(C(=O)NCNC(=O)[C@H](CCc3ccccc3)[C@@H](CC)N(O)C=O)o2)ccc1C(=O)N[C@@H](CC(=O)O)C(=O)O | > 6.00 | > 6.90 | > 6.40 | > 5.40 | > 6.10 | > 6.70 |
| CCOc1cc(-c2ccc(C(=O)NCNC(=O)[C@H](CCc3ccccc3)[C@@H](CC)N(O)C=O)o2)ccc1C(=O)N(CC(=O)O)CC(=O)O | > 6.00 | > 6.90 | > 6.40 | > 5.40 | > 6.10 | > 6.70 |
| CCCCC[C@@H](C(=O)NCNC(=O)c1ccc(-c2ccc(C(=O)NCP(=O)(O)O)c(OCC)c2)o1)[C@@H](CC)N(O)C=O | > 6.00 | > 6.90 | > 6.40 | > 5.40 | > 6.10 | > 6.70 |
| CCCCC[C@@H](C(=O)NCNC(=O)c1ccc(-c2cc(OCC)cc(C(=O)O)c2O)o1)[C@@H](CC)N(O)C=O | > 6.00 | > 6.90 | > 6.40 | > 5.40 | > 6.10 | > 6.70 |
| CCCCC[C@@H](C(=O)NCNC(=O)c1ccc(-c2cc(OCC(=O)O)cc(C(=O)O)c2O)o1)[C@@H](CC)N(O)C=O | > 6.00 | > 6.90 | > 6.40 | > 5.40 | > 6.10 | > 6.70 |
| CCCCC[C@@H](C(=O)NCNC(=O)c1ccc(-c2cc(OCCC)cc(C(=O)O)c2)o1)[C@@H](CC)N(O)C=O | > 6.00 | > 6.90 | > 6.40 | > 5.40 | > 6.10 | > 6.70 |
| CCOc1cc(-c2ccc(C(=O)NCNC(=O)[C@H](CCc3ccc(F)cc3F)[C@@H](CC)N(O)C=O)o2)ccc1C(=O)N[C@@H](CC(=O)O)C(=O)O | > 6.00 | > 6.90 | > 6.40 | > 5.40 | > 6.10 | > 6.70 |
| CCCCC[C@@H](C(=O)NCNC(=O)c1ccc(-c2ccc(C(=O)N(CC(=O)O)CC(=O)O)c(OCC)c2)o1)[C@@H](CC)N(O)C=O | > 6.00 | > 6.90 | > 6.40 | > 5.40 | > 6.10 | > 6.70 |
